pIC50: −log10 of the molar value.
Biological target: T1, α4β7 (adhesion of RPMI cells to CS-1) (Homo sapiens, UniProt P13612+P26010)
T1 construct: endogenous in cells
T1 sequence (P13612 34-1032): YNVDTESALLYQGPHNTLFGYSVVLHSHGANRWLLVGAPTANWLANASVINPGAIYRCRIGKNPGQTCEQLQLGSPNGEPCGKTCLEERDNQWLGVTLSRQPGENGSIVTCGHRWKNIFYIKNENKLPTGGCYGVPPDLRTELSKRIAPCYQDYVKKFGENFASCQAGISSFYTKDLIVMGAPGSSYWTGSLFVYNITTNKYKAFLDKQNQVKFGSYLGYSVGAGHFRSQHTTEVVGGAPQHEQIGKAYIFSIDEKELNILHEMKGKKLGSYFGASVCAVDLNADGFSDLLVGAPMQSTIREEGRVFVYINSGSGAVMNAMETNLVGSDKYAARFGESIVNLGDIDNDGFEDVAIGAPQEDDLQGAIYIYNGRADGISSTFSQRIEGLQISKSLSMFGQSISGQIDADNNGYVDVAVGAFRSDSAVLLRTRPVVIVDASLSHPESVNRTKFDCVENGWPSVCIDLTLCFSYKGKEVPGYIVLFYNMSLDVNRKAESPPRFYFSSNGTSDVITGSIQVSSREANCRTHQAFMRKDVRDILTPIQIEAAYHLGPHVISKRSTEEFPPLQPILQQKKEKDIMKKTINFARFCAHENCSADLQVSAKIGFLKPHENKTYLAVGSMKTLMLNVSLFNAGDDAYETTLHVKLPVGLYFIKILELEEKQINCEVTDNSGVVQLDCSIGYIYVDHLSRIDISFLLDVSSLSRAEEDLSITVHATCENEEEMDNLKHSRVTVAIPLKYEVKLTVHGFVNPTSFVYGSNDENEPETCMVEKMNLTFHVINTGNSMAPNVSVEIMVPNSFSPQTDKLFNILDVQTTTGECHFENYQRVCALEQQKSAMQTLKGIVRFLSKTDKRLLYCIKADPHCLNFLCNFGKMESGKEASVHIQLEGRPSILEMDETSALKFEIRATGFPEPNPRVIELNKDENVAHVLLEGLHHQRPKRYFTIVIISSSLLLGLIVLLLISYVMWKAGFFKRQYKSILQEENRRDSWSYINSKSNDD
T1 sequence (P26010 20-798): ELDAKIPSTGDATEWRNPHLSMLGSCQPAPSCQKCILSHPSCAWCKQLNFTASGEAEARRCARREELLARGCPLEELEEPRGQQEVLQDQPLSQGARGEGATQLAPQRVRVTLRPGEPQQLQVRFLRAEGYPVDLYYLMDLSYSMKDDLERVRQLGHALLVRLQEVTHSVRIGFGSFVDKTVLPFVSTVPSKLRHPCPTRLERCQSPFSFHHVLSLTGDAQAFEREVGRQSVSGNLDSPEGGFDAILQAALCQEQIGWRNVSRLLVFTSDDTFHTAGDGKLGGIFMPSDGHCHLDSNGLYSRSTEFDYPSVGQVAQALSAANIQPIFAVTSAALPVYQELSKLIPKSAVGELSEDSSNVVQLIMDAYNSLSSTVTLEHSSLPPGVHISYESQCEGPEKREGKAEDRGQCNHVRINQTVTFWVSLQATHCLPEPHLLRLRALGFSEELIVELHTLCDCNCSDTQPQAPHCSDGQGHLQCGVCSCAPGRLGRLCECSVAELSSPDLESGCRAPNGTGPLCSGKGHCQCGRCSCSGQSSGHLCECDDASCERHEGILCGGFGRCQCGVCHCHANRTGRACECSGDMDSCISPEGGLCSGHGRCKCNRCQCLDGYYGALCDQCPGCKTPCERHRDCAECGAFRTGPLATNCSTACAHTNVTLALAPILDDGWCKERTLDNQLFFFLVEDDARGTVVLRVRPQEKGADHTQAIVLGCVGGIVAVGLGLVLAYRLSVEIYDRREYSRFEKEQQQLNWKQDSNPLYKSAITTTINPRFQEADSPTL
Experiment: RPMI-CS-1 cell adhesion assay
Format: cell-based
Conditions: adhesion of RPMI B-cell line (expresses α4β7) to CS-1 peptide coated microwells; read-out: RPMI-CS-1 IC50 value range
Protocol: RPMI-CS-1 Cell Adhesion Assay:
The test compounds were added in increasing concentrations to RPMI cells and then the cell-compound mixture was added to CS-1 coated microwells. The plates were incubated, washed and the percentage of attached cells were quantitated.
The CS-1 derived peptide, […], and the scrambled control peptide, […], were synthesized at Tanabe Research Laboratories, USA, Inc. on a Beckman 990 synthesizer using t-Boc methodology. […] Microtiter plates were coated with 20 μg/ml human serum albumin (HSA) for 2 hours at room temperature, washed once with PBS and derivatized with 10 μg/ml SPDP for 1 hour. […] Unbound peptide was removed from the plates by washing with PBS. To block non-reacted sites, the plates were coated with 100 μl of a 2.5 mg/ml BSA solution in PBS for one hour at 37° C. 100 μl of RPMI cells (2.5×10^6 cells/ml) in Dulbecco's Modified Eagles Medium (DMEM) plus 0.25% ovalbumin were added to peptide coated dishes and incubated for 1 hour at 37° C. […] To do this, the enzyme substrate p-nitrophenyl-N-acetyl-β-D-glucoseaminide is dissolved at 7.5 mM in 0.1 M citrate buffer pH 5 and then mixed with an equal volume of 0.5% Triton X100. 50 μl of the substrate solution was added to the plates and the plates were incubated at 37° C. for 60 minutes.
In this assay, IC50 value ranges (μM) are depicted by A, B, C and D. These ranges as follows. D>5≧C>1≧B>0.3≧A

| Structure (SMILES) | pIC50 |
| --- | --- |
| O=C(NCCCO)c1ccccc1-c1ccc(C[C@H](NC(=O)c2c(Cl)cccc2Cl)C(=O)O)cc1 [Example 57, N-(2,6-Dichlorobenzoyl)-4-[2-[N-(3-hydroxypropyl)carbamoyl]phenyl]-L-phenylalanine] | 5.30 to 6.00 |
| CN(C)C(=O)c1ccccc1-c1ccc(C[C@H](NC(=O)c2c(Cl)cccc2Cl)C(=O)O)cc1 [Example 58, N-(2,6-Dichlorobenzoyl)-4-[2-(N,N-dimethylcarbamoyl)phenyl]-L-phenylalanine] | 6.00 to 6.52 |
| O=C(NCCN1CCOCC1)c1ccccc1-c1ccc(C[C@H](NC(=O)c2c(Cl)cccc2Cl)C(=O)O)cc1 [Example 59, N-(2,6-Dichlorobenzoyl)-4-[2-[N-(2-morpholinoethyl)carbamoyl]phenyl]-L-phenylalanine] | 5.30 to 6.00 |
| NC(=O)c1ccccc1-c1ccc(C[C@H](NC(=O)c2c(Cl)cccc2Cl)C(=O)O)cc1 [Example 60] | 6.00 to 6.52 |
| CS(=O)(=O)NC(=O)c1ccccc1-c1ccc(C[C@H](NC(=O)c2c(Cl)cccc2Cl)C(=O)O)cc1 [Example 61, N-(2,6-Dichlorobenzoyl)-4-[2-[(N-methanesulfonyl)carbamoyl]phenyl]-L-phenylalanine] | < 5.30 |
| COc1ccccc1-c1ccc(C[C@H](NC(=O)c2ccc([N+](=O)[O-])cc2Cl)C(=O)O)cc1 [Example 62, N-(2-Chloro-4-nitrobenzoyl)-4-(2-methoxyphenyl)-L-phenylalanine] | > 6.52 |
| COc1ccccc1-c1ccc(C[C@H](NC(=O)c2ccc(N)cc2Cl)C(=O)O)cc1 [Example 63, N-(4-Amino-2-chlorobenzoyl)-4-(2-methoxyphenyl)-L-phenylalanine] | 6.00 to 6.52 |
| COc1ccccc1-c1ccc(C[C@H](NC(=O)c2ccc(NS(C)(=O)=O)cc2Cl)C(=O)O)cc1 [Example 64, N-[2-Chloro-4-(methanesulfonylamino)benzoyl]-4-(2-methoxyphenyl)-L-phenylalanine] | > 6.52 |
| COc1ccccc1-c1ccc(C[C@H](NC(=O)c2ccc(NS(=O)(=O)C(F)(F)F)cc2Cl)C(=O)O)cc1 [Example 65, N-[2-Chloro-4-(trifluoromethanesulfonylamino)benzoyl]-4-(2-methoxyphenyl)-L-phenylalanine] | > 6.52 |
| CCOC(=O)Nc1ccc(C(=O)N[C@@H](Cc2ccc(-c3ccccc3OC)cc2)C(=O)O)c(Cl)c1 [Example 66, N-[2-Chloro-4-(ethoxycarbonylamino)benzoyl]-4-(2-methoxyphenyl)-L-phenylalanine] | > 6.52 |
| COc1ccccc1-c1ccc(C[C@H](NC(=O)c2ccc(NC(C)=O)cc2Cl)C(=O)O)cc1 [Example 67, N-[2-Chloro-4-(acetylamino)benzoyl]-4-(2-methoxyphenyl)-L-phenylalanine] | 6.00 to 6.52 |
| COc1ccccc1-c1ccc(C[C@H](NC(=O)c2ccc(NS(=O)(=O)c3ccccc3)cc2Cl)C(=O)O)cc1 [Example 68, N-[2-Chloro-4-(benzenesulfonylamino)benzoyl]-4-(2-methoxyphenyl)-L-phenylalanine] | > 6.52 |
| COc1ccccc1-c1ccc(C[C@H](NC(=O)c2ccc(NC(N)=O)cc2Cl)C(=O)O)cc1 [Example 69, N-(2-Chloro-4-ureidobenzoyl)-4-(2-methoxyphenyl)-L-phenylalanine] | > 6.52 |
| CNC(=S)Nc1ccc(C(=O)N[C@@H](Cc2ccc(-c3ccccc3OC)cc2)C(=O)O)c(Cl)c1 [Example 70, N-[2-Chloro-4-(3-methylthioureido)benzoyl]-4-(2-methoxyphenyl)-L-phenylalanine] | > 6.52 |
| COc1ccccc1-c1ccc(C[C@H](NC(=O)c2c(Cl)cccc2Cl)C(=O)O)cc1C(C)O (stereo partly drawn) [Example 73, N-(2,6-Dichlorobenzoyl)-3-(1-hydroxyethyl)-4-(2-methoxyphenyl)-L-phenylalanine] | > 6.52 |
| COc1ccc(-c2ccc(C[C@H](NC(=O)c3ccc(C(=O)O)cc3)C(=O)O)cc2)cc1 [Example 76] | < 5.30 |
| COc1cccc(OC)c1-c1ccc(C[C@H](NC(=O)c2ccc(NS(C)(=O)=O)cc2Cl)C(=O)O)cc1 [Example 77] | > 6.52 |
| COc1ccccc1-c1ccc(C[C@H](NC(=O)[C@H](C)c2ccccc2)C(=O)O)cc1 [Example 78] | 6.00 to 6.52 |

| Structure (SMILES) | pIC50 |
| --- | --- |
| COc1ccccc1-c1ccc(C[C@H](NC(=O)c2c(Cl)cccc2Cl)C(=O)O)cc1NC(C)=O [Example 80] | > 6.52 |
| O=C(O)c1ccc(C(=O)N[C@@H](Cc2ccc(-c3ccccc3O)cc2)C(=O)O)cc1 [Example 81] | < 5.30 |
| COc1ccccc1-c1ccc(C[C@H](NC(=O)c2ccc(Cl)cc2Cl)C(=O)O)cc1 [Example 84] | 5.30 to 6.00 |
| COc1ccccc1-c1ccc(C[C@H](NC(=O)c2c(F)cccc2Cl)C(=O)O)cc1 [Example 86] | > 6.52 |
| COc1ccccc1-c1ccc(C[C@H](NC(=O)c2ccccc2C(F)(F)F)C(=O)O)cc1 [Example 88] | 5.30 to 6.00 |
| COc1ccccc1-c1ccc(C[C@H](NC(=O)c2cccnc2Cl)C(=O)O)cc1 [Example 90] | 6.00 to 6.52 |
| COc1ccccc1-c1ccc(C[C@H](NC(=O)c2ccc(Cl)nc2)C(=O)O)cc1 [Example 93] | < 5.30 |
| COc1ccccc1-c1ccc(C[C@H](NC(=O)c2ccc(C)nc2Cl)C(=O)O)cc1 [Example 94] | 5.30 to 6.00 |
| COc1ccccc1-c1ccc(C[C@H](NC(=O)C(=O)c2ccccc2)C(=O)O)cc1 [Example 95] | 5.30 to 6.00 |
| COc1ccccc1-c1ccc(C[C@H](NC(=O)c2ccccc2Br)C(=O)O)cc1 [Example 96] | 6.00 to 6.52 |
| CCCc1ccc(C(=O)N[C@@H](Cc2ccc(-c3ccccc3OC)cc2)C(=O)O)cc1 [Example 97] | 6.00 to 6.52 |
| COc1ccccc1-c1ccc(C[C@H](NC(=O)c2ccc([N+](=O)[O-])cc2)C(=O)O)cc1 [Example 101] | < 5.30 |
| COc1ccccc1-c1ccc(C[C@H](NC(=O)c2ccc(CC(C)C)cc2)C(=O)O)cc1 [Example 102] | < 5.30 |
| COc1ccccc1-c1ccc(C[C@H](NC(=O)c2cnccn2)C(=O)O)cc1 [Example 103] | < 5.30 |
| COc1ccccc1-c1ccc(C[C@H](NC(=O)c2ccc(NC(C)=O)cc2)C(=O)O)cc1 [Example 104] | < 5.30 |
| COc1ccccc1-c1ccc(C[C@H](NC(=O)c2ccccc2NC(C)=O)C(=O)O)cc1 [Example 105] | < 5.30 |
| COc1ccccc1-c1ccc(C[C@H](NC(=O)c2ccccc2NC(=O)c2c(Cl)cccc2Cl)C(=O)O)cc1 [Example 106] | 5.30 to 6.00 |
| COc1ccccc1-c1ccc(C[C@H](NC(=O)c2ccc(NC(=O)c3c(Cl)cccc3Cl)cc2)C(=O)O)cc1 [Example 107] | 5.30 to 6.00 |

Source: patent US6855843B2, “Inhibitors of α4 mediated cell adhesion” (Tanabe Seiyaku Co., Ltd., priority 1998, dated 2005)
